Read-outs that look alike come from different tables or passages of the source.
Experiment: Half-life of ADR destruction by UVA light in the presence of test compounds (decrease in absorbance at 480 nm)
Type: physicochemical
[1] = UVA light, 100 μM test compound alone
[2] = UVA light, 100 μM test compound with 0.5 μM riboflavin

SMILES | Half-Life of ADR Destruction, 100 μM Test Compound [1] [min] | Half-Life of ADR Destruction, 100 μM Test Compound and 0.5 μM Riboflavin [2] [min] | further results
Nc1ncnc2c1ncn2[C@@H]1O[C@H](CO)[C@@H](O)[C@H]1O [Adenine-9-ribose (Adenosine), Adenine-9-ribose, reference compound] | 50.2 | 43.0 | 
Nc1ncnc2nc[nH]c12 [Adenine] | 50.2 | 27.4 | 
O=c1nc2[nH]c3ccccc3nc-2c(=O)[nH]1 [Alloxazine] | 2.21 | 1.89 | 
O=C1c2c(O)cccc2C([C@@H]2O[C@H](CO)[C@@H](O)[C@H](O)[C@H]2O)c2cc(CO)cc(O)c21 (some centres unmarked) [Aloin] | 75.3 | 75.3 | 
O=C1c2cccc(S(=O)(=O)O)c2C(=O)c2cccc(S(=O)(=O)O)c21 [Anthraquinone-1,5-disulfonic acid] | 30.1 | 23.2 | 
O=C(O)c1cc2c(cc1C(=O)O)C(=O)c1ccccc1C2=O [Anthraquinone-2,3-dicarboxylic acid] | 1.57 |  | 
O=C1c2ccc(S(=O)(=O)O)cc2C(=O)c2ccc(S(=O)(=O)O)cc21 [Anthraquinone-2,6-disulfonic acid] | 0.275 | 0.283 | 
O=C1c2ccccc2C(=O)c2cnccc21 [Benz[γ]isoquinoline-5,10-dione] | <0.355 | <0.261 | 
O=S(O)c1ccccc1 [Benzenesulfinic acid] |  | 15.8 | 
NS(=O)(=O)c1ccccc1 [Benzenesulfonamide] |  |  | Half-Life of ADR Destruction, 100 μM Test Compound and 0.5 μM Riboflavin: 50.2 min
O=S(=O)(O)c1ccccc1 [Benzenesulfonic acid] |  | 50.2 | 
c1ccc2occc2c1 [Benzofuran] |  | 75.3 | 
NC(=O)NC(=O)c1ccccc1 [Benzoylurea] | 43.0 |  | 
OCC=Cc1ccccc1 [Cinnamyl Alcohol] | 43.0 |  | 
c1ccc2cocc2c1 [Compound 2-Benzofuran, 2-Benzofuran] | 23.2 |  | 
C1=CCNC1 [Compound 3-Pyrroline, 3-Pyrroline] |  | 43.0 | 
O=c1ccoc2ccccc12 [Compound 4-Chromone, 4-Chromone] | 43.0 |  | 
O=C1c2ccccc2-c2ccccc21 [Compound 9-Fluorenone, 9-Fluorenone] |  | 43.0 | 
COc1cc(/C=C/CO)ccc1O[C@@H]1O[C@H](CO)[C@@H](O)[C@H](O)[C@H]1O [Coniferin] | 50.2 | 15.1 | 

SMILES | Half-Life of ADR Destruction, 100 μM Test Compound [1] [min] | Half-Life of ADR Destruction, 100 μM Test Compound and 0.5 μM Riboflavin [2] [min] | further results
O=C(O)c1cc2ccccc2oc1=O [Coumarin-3-carboxylic acid] | 23.2 | 21.5 | 
N[C@@H](CSSC[C@H](N)C(=O)O)C(=O)O [Cystine] |  | 150.5 | 
Nc1cc[nH]c(=O)n1 [Cytosine] | 50.2 | 43.0 | 
C[S+](C)[O-] [Dimethylsulfoxide] |  |  | Half-Life of ADR Destruction, Test Compound (UVA light, dimethylsulfoxide 4% = 0.56 M alone): 33.5 min; Half-Life of ADR Destruction, Test Compound and 0.5 μM Riboflavin (UVA light, dimethylsulfoxide 4% = 0.56 M with 0.5 μM riboflavin): 27.4 min; Half-Life of ADR Destruction, Test Compound and 0.5 μM Riboflavin (UVA light, dimethylsulfoxide 40% - 5.6 M with 0.5 μM riboflavin): 10.4 min
CCc1cccc2c3c([nH]c12)C(CC)(CC(=O)O)OCC3 (centres unmarked) [Etodolac, reference compound] | 33.5 | 6.41 | 
O=C(O)CCC(=O)c1ccc(-c2ccccc2)cc1 [Fenbufen, reference compound] | 12.5 | 12.0 | 
CC(C(=O)O)c1ccc(-c2ccccc2)c(F)c1 (stereo not drawn) [Flurbiprofen, 4-Phenyl-3-Fluoro-α-Methyl Phenylacetic Acid, reference compound] | 75.3 | 50.2 | 
O=C(C(=O)c1ccco1)c1ccco1 [Furil] | 43.0 | 33.5 | 
C=C1C[C@]23C[C@@]1(O)CC[C@H]2[C@@]12C=C[C@H](O)[C@@](C)(C(=O)O1)[C@H]2[C@@H]3C(=O)O [Gibberellic acid] | 43.0 |  | 
Nc1nc2c(ncn2[C@@H]2O[C@H](CO)[C@@H](O)[C@H]2O)c(=O)[nH]1 [Guanosine] | 75.3 | 14.3 | 
O=c1[nH]cnc2nc[nH]c12 [Hypoxanthine] |  | 43.0 | 
c1ccc2c(c1)CCc1ccccc1N2 [Iminodibenzyl] |  | 23.2 | 
O=C(O)c1cc2ccccc2[nH]1 [Indole-2-carboxylic acid] |  | 9.12 | 
NC(=O)Cc1c[nH]c2ccccc12 [Indole-3-acetamide] |  | 11.2 | 
O=C(O)Cc1c[nH]c2ccccc12 [Indole-3-acetic acid] | 27.4 ± 14.1 | 3.75 ± 0.22 | 
O=Cc1c[nH]c2ccccc12 [Indole-3-carboxaldehyde] |  | 30.1 | 
O=C(O)CCc1c[nH]c2ccccc12 [Indole-3-propionic acid] |  | 9.5 ± 3.5 | 
O=C(O)C(=O)Cc1c[nH]c2ccccc12 [Indole-3-pyruvic acid] |  | 6.74 | 
O=C(O)c1ccc2[nH]ccc2c1 [Indole-5-carboxylic acid] |  | 12.0 | 

SMILES | Half-Life of ADR Destruction, 100 μM Test Compound [1] [min] | Half-Life of ADR Destruction, 100 μM Test Compound and 0.5 μM Riboflavin [2] [min] | further results
c1ccc2c(c1)CCN2 [Indoline] |  |  | Half-Life of ADR Destruction, 100 μM Test Compound and 0.5 μM Riboflavin: 75.3 min
COc1ccc2c(c1)c(CC(=O)O)c(C)n2C(=O)c1ccc(Cl)cc1 [Indomethacin, 1-(4-Chlorobenzoyl)-5-Methoxy-2-Methyl-indole-3-acetic acid, reference compound] | 100.3 |  | 
CC(C(=O)O)c1ccc(N2Cc3ccccc3C2=O)cc1 (stereo not drawn) [Indoprofen, 4-(1-Isoindolinone)-α-Methyl Phenylacetic Acid, reference compound] | 75.3 | 25.1 | 
Cc1cc(NC(=O)C2=C(O)c3ccccc3S(=O)(=O)N2C)no1 [Isoxicam, reference compound] | 75.3 |  | 
O=C(c1ccccc1)c1ccc2n1CCC2C(=O)O (centres unmarked) [Ketorlac, reference compound] |  |  | Half-Life of ADR Destruction, 100 μM Test Compound: 4.07 min; Half-Life of ADR Destruction, 100 μM Test Compound and 0.5 μM Riboflavin: 3.81 min
Nc1ccccc1C(=O)CC(N)C(=O)O (centres unmarked) [Kynurenine] |  | 75.3 | 
O=c1[nH]c(=O)c2nccnc2[nH]1 [Lumazine] | 5.79 | 3.31 | 
Cc1cc2nc3[nH]c(=O)[nH]c(=O)c3nc2cc1C [Lumichrome] |  |  | Half-Life of ADR Destruction, 100 μM Test Compound: 6.02 min; Half-Life of ADR Destruction, 100 μM Test Compound and 0.5 μM Riboflavin: 3.86 min
COc1ccc(C(=O)CCC(=O)O)c2ccccc12 [Menbutone, 4-Methoxy-γ-oxo-1-naphthalenebutyric acid, reference compound] | 2.21 | 1.37 | 
COC(=O)c1ccc(N)cc1 [Methyl-4-aminobenzoate] |  | 10.8 | 
Cn1ccc2ccccc21 [N-ω-methyl-indole] |  | 20.1 | 
COc1ccc2cc(CCC(C)=O)ccc2c1 [Nabumetone, 4-(6-Methoxy-2-naphthyl)-butan-2-one, reference compound] | 27.4 | 8.6 | Half-Life of ADR Destruction, 100 μM Test Compound and 0.5 μM Riboflavin (UVA light, 100 μM test compound with 0.5 μM riboflavin, listed as 4-(6-Methoxy-2-naphthyl)-butan-2-one (Nabumetone)): 8.60 min
O=C(O)c1cccc2ccccc12 [Naphthalene-1-carboxylic acid] | 50.2 | 43.0 | 
O=C(O)Cc1ccc2ccccc2c1 [Naphthalene-2-acetic acid] | 75.3 | 30.1 | 
O=C(O)c1ccc2ccccc2c1 [Naphthalene-2-carboxylic acid] | 50.2 | 43.0 | 
OCCc1ccccc1 [Phenylethyl Alcohol] | 43.0 |  | 
NC(C(=O)O)c1ccccc1 (centres unmarked) [Phenylglycine] |  | 67.8 ± 10.7 | 
CN1C(C(=O)Nc2ccccn2)=C(O)c2ccccc2S1(=O)=O [Piroxicam, reference compound] | 100.3 | 10.4 | 
CCC(=O)c1ccccc1 [Propriophenone] |  |  | Half-Life of ADR Destruction, 100 μM Test Compound: 43.0 min

— patent US20010056085A1, “Methods of using vesicant drug formulations” (priority 1996, published 2001)
